# Data published in patent US20040137532A1, “Antibody competition test (act) for the qualitative and conformation dependent quantitative detection of the conformation changes of p-glycoprotein and other cell surface receptors, pumps and proteins, and uses thereof” (priority 2001, published 2004).
# Like-named read-outs stand apart in the source and are kept apart here.
# Biological target: P-glycoprotein (Pgp) (Homo sapiens, UniProt P08183)
# Settings: for conformation change which prevents binding of MM12.10 after UIC2 (efficient in ACT): cells pretreated with modulator/substrate, then UIC2, then FITC-MM12.10, KB-V1 and NIH 3T3 MDR1 cells
# Description: The cells were trypsinized as usual, washed twice with PBS (phosphate buffered saline, pH 7,4). 10^6 cells/1 ml PBS (plus 8 mM glucose), pre-incubated for 20 minutes at 37° C. with different drugs, modulators, and without washing the cells, the first (“A”) monoclonal antibody was added to the samples. After a further 30 minutes incubation (at 37° C.) an FITC or 5-sFx conjugated second (“B”) antibody was added to the samples (again without washing the cells), and were incubated at 37° C. for another 30 minutes. In case of the UIC2-shift test the cells were incubated with UIC2 antibody, washed twice, and incubated with goat anti-mouse IgG2a FITC conjugate (F/P=4,3, Sigma) on ice in 100 μl PBS for 45 minutes. The samples washed twice were resuspended in 500 μl PBS, and analyzed in flow cytometer. The antibody concentrations used were: 8 μg/ml MRK16, MC57, MM8.15, MM12.10 and 10 μg/ml UIC2. Daunorubicine (DNR) and calcein accumulation tests: see Goda, K. et al.: Practical guide to physical analysis of cell surface receptors, Ed.: Krasznai, Z. and Mátyus, L., pp. 110-125 (1998); Homolya, L., Holló, Zs., Germann, U. A., Pastan, L, Gottesman, M. M. and Sarkadi, B.: Fluorescent cellular indicators are extruded by the multidrug resistance protein. Journal of Biological Chemistry 268 21493-21496 (1993); Holló, Zs., Homolya, L., Davis, C. W. and Sarkadi, B.: Calcein accumulation as a fluorimetric functional assay of the multidrug trasporter. Biochimica et Biophysica Acta 1191 384-388 199420,21.
# The average fluorescence intensities per cell were determined by Becton Dickinson FACScan (Mountain View, Calif.). Dead cells were excluded from the analysis by propidium-iodate staining. The fluorescence signals were plotted on logarithmic scale, the two-level analysis was carried out by BDIS CellQuest and FloWin softwares (SoftFlow Ltd., Pécs, Hungary).
# The cells are then treated with the first (“A”) antibody (incubation with or without UIC2, MM8.1 or MC57) for 30 minutes, and the cells are labelled with FITC-MM12.10 (“B”) antibody The curves are flow cytometry histograms from representative measurement each. Continous line: control without “A”; bold line: “A”=UIC2; dotted line: “A”=MM8.15 (a-d) or MC57 (e-f). Binding of the “A” antibodies was verified in two independent experiments, with indirect immunfluorescence.
# The ratio of average FITC MM12.10 fluorescence intensities, with and without UIC2 pretreatment give the Rcompetition values (black columns). Cells were pretreated for 20 minutes with reverting agents, and incubated for further 20 minutes with UIC2 antibody, finally the FITC-MM12.10 antibody was used (further 30 minutes incubation). Cells were not washed between the incubation steps. […] UIC2-shift was detected by indirect immunfluorescence; the white columns show the ratio of the average fluorescence intensities detected with and without the reverting treatments (Rshift). On the insert figure the same UIC2-shift data are plotted on magnified scale. The average of 4-6 independent measurements (±SEM) are shown.
# ACT tests were carried out on NIH3T3 MDR1 cells, with different antibody combinations. Following UIC2 or MM12.10 (not conjugated with stain) pretreatment the cells are labelled with FITC or 5sFx conjugated MM12.10, UIC2, MRK16 and MM18.15 antibodies. Before adding the antibodies the cells are pretreated with CSA (grey columns) or not (black columns).
# Sequence of P-glycoprotein (Pgp) (P08183 whole entry): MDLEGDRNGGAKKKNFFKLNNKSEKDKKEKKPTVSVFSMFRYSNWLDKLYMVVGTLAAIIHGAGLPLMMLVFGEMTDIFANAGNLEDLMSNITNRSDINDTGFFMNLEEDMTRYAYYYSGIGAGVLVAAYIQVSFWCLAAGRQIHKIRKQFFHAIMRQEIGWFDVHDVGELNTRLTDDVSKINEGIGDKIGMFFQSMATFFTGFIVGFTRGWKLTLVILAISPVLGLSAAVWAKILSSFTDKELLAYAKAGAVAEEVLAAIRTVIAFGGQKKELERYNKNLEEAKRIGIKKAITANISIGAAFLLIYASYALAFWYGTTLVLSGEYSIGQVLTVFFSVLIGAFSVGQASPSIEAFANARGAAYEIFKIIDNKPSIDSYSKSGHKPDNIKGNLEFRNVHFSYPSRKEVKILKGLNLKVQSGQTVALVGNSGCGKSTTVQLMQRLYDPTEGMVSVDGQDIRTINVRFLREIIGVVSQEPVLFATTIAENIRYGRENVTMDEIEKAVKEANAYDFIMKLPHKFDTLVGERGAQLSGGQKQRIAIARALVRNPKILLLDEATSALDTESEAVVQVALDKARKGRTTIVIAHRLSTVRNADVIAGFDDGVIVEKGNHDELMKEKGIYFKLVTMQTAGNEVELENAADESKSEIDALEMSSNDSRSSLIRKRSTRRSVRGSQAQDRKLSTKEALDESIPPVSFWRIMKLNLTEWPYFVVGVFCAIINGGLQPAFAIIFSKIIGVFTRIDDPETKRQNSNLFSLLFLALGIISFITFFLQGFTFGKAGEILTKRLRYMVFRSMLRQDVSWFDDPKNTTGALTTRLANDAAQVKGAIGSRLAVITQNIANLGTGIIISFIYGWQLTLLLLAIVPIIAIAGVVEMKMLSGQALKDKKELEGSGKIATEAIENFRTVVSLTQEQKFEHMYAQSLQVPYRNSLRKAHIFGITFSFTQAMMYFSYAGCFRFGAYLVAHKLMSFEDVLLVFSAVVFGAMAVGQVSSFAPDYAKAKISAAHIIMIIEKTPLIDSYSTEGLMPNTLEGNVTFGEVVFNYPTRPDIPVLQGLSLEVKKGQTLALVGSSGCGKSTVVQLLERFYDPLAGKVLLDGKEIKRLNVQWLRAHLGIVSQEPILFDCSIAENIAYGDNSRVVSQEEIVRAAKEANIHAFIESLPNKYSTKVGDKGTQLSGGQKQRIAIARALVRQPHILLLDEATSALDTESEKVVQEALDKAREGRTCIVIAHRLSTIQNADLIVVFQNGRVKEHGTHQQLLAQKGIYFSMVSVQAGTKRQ
Compound,conformation change which prevents binding of MM12.10 after UIC2 (efficient in ACT),Rcompetition value in ACT after ATP depletion,conformation change which prevents binding of MM12.10 after UIC2 (efficient in ACT) (listed as valinomycin)
C/C=C/C[C@@H](C)C(=O)[C@H]1C(=O)N[C@@H](C(C)C)C(=O)N(C)CC(=O)N(C)[C@@H](CC(C)C)C(=O)N[C@@H](C(C)C)C(=O)N(C)[C@@H](CC(C)C)C(=O)N[C@@H](C)C(=O)N[C@H](C)C(=O)N(C)[C@@H](CC(C)C)C(=O)N(C)[C@@H](CC(C)C)C(=O)N(C)[C@@H](C(C)C)C(=O)N1C [PSC 833],accomplishes the conformation change,,
CC[C@H]1/C=C/C=C/C[C@@H](C)[C@H](O)[C@@](C)(O)C(=O)[C@@H](C)[C@H](O)[C@@H](C)C(=O)[C@@H](C)[C@H](O)[C@@H](C)/C=C/C(=O)O[C@@H]2[C@H](C)[C@H](CC1)O[C@]1(CC[C@H](C)[C@H](C[C@@H](C)O)O1)[C@H]2C [oligomicin],,big,
CC(C)[C@@H]1NC(=O)[C@H](C)OC(=O)[C@@H](C(C)C)NC(=O)[C@@H](C(C)C)OC(=O)[C@H](C(C)C)NC(=O)[C@H](C)OC(=O)[C@@H](C(C)C)NC(=O)[C@@H](C(C)C)OC(=O)[C@H](C(C)C)NC(=O)[C@H](C)OC(=O)[C@@H](C(C)C)NC(=O)[C@@H](C(C)C)OC1=O [valinomycine],accomplishes the conformation change,,efficient
gramicidin,doesn't,,
